Source: patent US20040044037A1, “Amidino-urea serotonin receptor ligands and compositions, their pharmaceutical uses, and methods for their snythesis” (priority 2003, published 2004)

Key:
[1] = target: T1, human D2S dopamine (hD2S-DA) receptors (Homo sapiens, UniProt P14416); experiment: Competition radioligand binding, hD2S dopamine; conditions: [3H]Spiperone; membranes of A9 L cells; read-out: Ki D2
T1 construct: purchased Receptor Biology, Inc. (Beltsville, Md.); host or cells: A9 L cells

[2] = target: T2, human 5-HT7B (h5-HT7b) receptors (Homo sapiens, UniProt P34969); experiment: Competition radioligand binding, h5-HT7b; conditions: [3H]5-CT; membranes of HEK 293 cells; read-out: Ki 5-HT7
T2 construct: expressed in transfected cells
T2 sequence (P34969 1-432 limits assumed): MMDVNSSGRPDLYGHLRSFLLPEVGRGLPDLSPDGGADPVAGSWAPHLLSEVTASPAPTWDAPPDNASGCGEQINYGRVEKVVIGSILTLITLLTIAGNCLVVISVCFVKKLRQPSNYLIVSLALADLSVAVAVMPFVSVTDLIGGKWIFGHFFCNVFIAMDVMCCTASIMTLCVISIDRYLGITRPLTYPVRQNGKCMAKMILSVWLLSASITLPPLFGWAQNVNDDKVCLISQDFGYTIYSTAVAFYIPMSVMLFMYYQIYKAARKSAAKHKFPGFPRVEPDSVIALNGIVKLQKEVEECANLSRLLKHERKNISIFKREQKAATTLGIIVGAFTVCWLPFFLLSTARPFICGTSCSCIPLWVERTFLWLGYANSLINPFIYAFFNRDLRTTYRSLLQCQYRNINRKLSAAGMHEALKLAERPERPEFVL
Excerpt: The compounds of the invention interact with 5-HT receptors and show selectivity for 5-HT receptors. The 5-HT receptor binding properties of the compounds are identified by competitive radioligand binding assays wherein membranes prepared from transfected cells expressing the 5-HT receptor subtype of interest. “Binding constants” refers herein to Ki values measured by inhibition of the binding of radiolabelled ligands that are selective for the 5-HT receptor type being studied. For 5-HT7 receptors, Ki values are determined by measuring the inhibition of 5-carboxamidotryptamine (5-CT) binding, wherein 5-HT7 receptors were incubated with the radiolabelled high affinity ligand, 5-carboxamidotryptamine ([^3H]5-CT), in the presence and absence of the compounds of the invention, at varying concentrations. The compounds of the invention have high binding affinity for serotonin receptors as measured by dissociation constant Ki. […] “Selectivity” for receptor type, in the context of this invention, refers to the ratio of binding constants for the two receptor types being compared. […] The compounds of the present invention preferably show selectivity for 5-HT7 receptors over other serotonin receptor subtypes of greater than about 100. The compounds of the present invention also preferably show selectivity for 5-HT7 receptors over other receptor types, such as dopamine D2, of greater than about 100.
Cells and Membrane Preparation: HEK 293 cells stably expressing human 5-HT7B (h5-HT7b) receptors were grown in Dulbecco's Modified Eagle's Medium (DMEM; Gibco) without sodium pyruvate and containing 4.5 g/L glucose, L-glutamine/penicillin-streptomycin (Gemini), 10% fetal bovine serum and 250 mg/l of the antibiotic, G418 (Geneticin) as previously described (Jasper, J. R., Kosaka, A., To, Z. P., Chang, D. J. and Eglen, R. M. (1997) Cloning, expression and pharmacology of a truncated splice variant of the human 5-ht7 receptor (h5-ht7b). Br. J. Pharmacol. 122(1):126-132.). Cell pellets were homogenized in approximately 50 mL of homogenization buffer (buffer A) containing: 50 mM Tris (pH 7.4), 2 mM EGTA, 0.32 M sucrose, 10 μM PMSF, 1 μg/mL leupeptin, 5 μg/mL Pepstatin A, and 5 μg/mL aprotinin using an UltraTurax homogenizer (Tekmar Company, Cincinnati, Ohio) at 80% maximum setting three times for 10 sec. Cell pellets were centrifuged at 4° C. at 1,500×g for 10 min in a Beckman GS-6R centrifuge. Pellets were resuspended in buffer A, homogenized and centrifuged as described above. Pooled supernatants were transferred to centrifuge bottles and centrifuged at 4° C. at 20,000×g for 30 min in a Beckman J2-HS centrifuge. Cell pellets were resuspended in buffer A and were centrifuged at 4° C. at 20,000×g for 30 min. Cell pellets were resuspended in buffer A and stored at −70° C. in aliquots of 2.5 mg/mL total membrane protein. Total membrane protein was assessed utilizing a BCA kit (Pierce; Rockford, Ill.). Membranes containing human 5-HT1a or 5HT2a receptors expressed in CHO K1 cells were prepared as described above.
Radioligand Binding Assays: For 5-HT7 saturation binding experiments, HEK-293 cell membranes expressing h5-HT7 receptors (5-10 μg membrane protein/well) were incubated in duplicate with [^3H]5-CT (approximately 0.2 nM) in binding assay buffer containing: 50 mM HEPES (pH 7.4), 0.5 mM EDTA, 10 mM MgCl2, 10 μM pargyline to inhibit monoamine oxidase activity, and 0.1% sodium ascorbate, in a final volume of 200 μL in 96-well polypropylene plates for 2 hours at 37° C. Nonspecific binding was determined by incubating membranes with 1 μM 5-HT. All radioligand binding assays were stopped by rapid filtration onto 96-well GF/C filter plates (Packard) soaked in 0.1% polyethylenimine. Filters were washed three times with ice-cold phosphate-buffered saline (PBS) wash buffer containing 50 mM NaPO4 (pH 7.4), 0.9% NaCl, 2 mM MgCl2 and 0.02% NaN3. The filters were then counted using liquid scintillation in a Packard Topcount scintillation counter. […]

[3] = target: T3, human 5-HT6 (h5-HT6) receptors (Homo sapiens, UniProt P50406); experiment: Competition radioligand binding, h5-HT6; conditions: [3H]LSD; membranes of HEK-293 cells; read-out: Ki 5-HT6
T3 construct: purchased Receptor Biology, Inc. (Beltsville, Md.); host or cells: HEK-293 cells
T3 sequence (P50406 whole entry): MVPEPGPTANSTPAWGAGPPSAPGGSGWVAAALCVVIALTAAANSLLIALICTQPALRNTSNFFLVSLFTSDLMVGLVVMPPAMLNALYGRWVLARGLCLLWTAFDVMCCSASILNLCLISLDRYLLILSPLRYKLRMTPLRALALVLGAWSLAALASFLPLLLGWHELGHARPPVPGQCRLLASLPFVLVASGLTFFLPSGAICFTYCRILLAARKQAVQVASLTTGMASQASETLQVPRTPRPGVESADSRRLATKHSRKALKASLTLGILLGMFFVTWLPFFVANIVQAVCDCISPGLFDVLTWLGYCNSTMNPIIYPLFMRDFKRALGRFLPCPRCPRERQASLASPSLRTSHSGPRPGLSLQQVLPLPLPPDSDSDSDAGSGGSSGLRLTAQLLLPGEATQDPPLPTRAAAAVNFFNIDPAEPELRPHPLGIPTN

T1 sequence (P14416 1-414 isoform P14416-2): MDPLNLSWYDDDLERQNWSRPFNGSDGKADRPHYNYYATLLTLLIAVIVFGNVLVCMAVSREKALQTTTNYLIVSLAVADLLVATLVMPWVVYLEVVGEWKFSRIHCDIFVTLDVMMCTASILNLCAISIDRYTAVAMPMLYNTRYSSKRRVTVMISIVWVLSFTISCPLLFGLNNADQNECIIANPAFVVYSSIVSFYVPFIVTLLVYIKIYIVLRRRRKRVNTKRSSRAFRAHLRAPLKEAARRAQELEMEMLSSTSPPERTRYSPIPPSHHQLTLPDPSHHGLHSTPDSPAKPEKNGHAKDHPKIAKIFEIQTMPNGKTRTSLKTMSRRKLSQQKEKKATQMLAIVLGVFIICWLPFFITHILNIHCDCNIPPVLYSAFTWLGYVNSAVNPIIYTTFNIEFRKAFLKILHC

Row | SMILES | Ki [1] | Ki [2] | Ki [3]
1 | N=C(NCc1cccc2ccccc12)NC(=O)NCC1CCNCC1 [Example 2, 4-({[({Imino[(1-naphthylmethyl)amino]methyl}amino)carbonyl]amino}methyl)piperidine] | > 2500 nM | 46 nM | 3200 nM
2 | COC(=O)NC(=N)NCc1cccc2ccccc12 [Example 4, Methylimino[(1-naphthylmethyl)amino]methylcarbamate] |  | 820 nM | 
3 | N=C(NC(=O)NCc1cccc(Cl)c1Cl)NC1CCCCC1O (stereo not drawn) [Example 9, 1,2-Dichloro-3-{[({[[(2-hydroxycyclohexyl)amino](imino)methyl]amino}carbonyl)amino]methyl}benzene] |  | 320 nM | 
4 | Cc1ccccc1CNC(=O)NC(=N)NCCc1ccccn1 [Example 10, 2-(2-{[Imino([{(2-methylbenzyl)amino]carbonyl}amino)methyl]amino}ethyl)pyridine] | > 2500 nM | 250 nM | 
5 | N=C(NCc1cccc2ccccc12)NC(=O)NCCCn1ccnc1 [Example 11] | 920 nM | 25 nM | 910 nM
6 | N=C(NCc1cccc2ccccc12)NC(=O)N1CCCC(C(N)=O)C1 (stereo not drawn) [Example 12, 1-[({Imino[(1-naphthylmethyl)amino]methyl}amino)carbonyl]-3-piperidine carboxamide] |  | 180 nM | 
7 | CN1CCCC1CCNC(=O)NC(=N)NCc1cccc2ccccc12 (stereo not drawn) [Example 13] | 1910 nM | 32 nM | 3050 nM
8 | N=C(NCc1cccc2ccccc12)NC(=O)N[C@@H](CO)c1ccccc1 [Example 19, 1-({[[({[(1R)-2-Hydroxy-1-phenylethyl]amino}carbonyl)amino](imino)methyl]amino}methyl)naphthalene] | 200 nM | 110 nM | 930 nM
9 | COc1ccc(CNC(=O)NC(=N)NCc2cccc3ccccc23)cc1 [Example 28, 1-({[Imino({[(4-methoxybenzyl)amino]carbonyl}amino)methyl]amino}methyl)naphthalene] | 500 nM | 43 nM | 3400 nM
10 | N=C(NCc1cccc2ccccc12)NC(=O)NCCc1ccc(N)cc1 [Example 33, 1-({[({[(4-Amninophenethyl)amino]carbonyl}amino)(imino)methyl]amino}methyl) naphthalene] | 900 nM | 48 nM | 1240 nM
11 | N=C(NCc1cccc2ccccc12)NC(=O)N1CCNCC1 [Example 37, N-(1-Naphthylmethyl)-N′-(1-piperazinylcarbonyl)guanidine] |  | 930 nM | 
12 | N=C(NCc1cccc2ccccc12)NC(=O)NCCc1c[nH]c2ccc(Cl)cc12 [Example 39, 5-Chloro-3-(2-{[({imino[(1-naphthylmethyl)amino]methyl}amino)carbonyl]amino}ethyl)-1H-indole] | 400 nM | 120 nM | 1180 nM
13 | CNC(=O)/N=C(/NCc1cccc2ccccc12)NC(=O)NC [Example 52, N-Methyl-N′-{(Z)-{[(methylamino)carbonyl]amino}[(1-naphthylmethyl)amino]methylidene}urea] |  | 1010 nM | 
14 | COc1ccccc1N1CCN(C(=O)NC(=N)N[C@H](C)c2ccc3ccccc3c2)CC1 [Example 82, N-{[4-(2-Methoxyphenyl)-1-piperazinyl]carbonyl}-N′-[(1R)-1-(2-naphthyl)ethyl]guanidine] |  | 1080 nM | 
15 | COc1ccccc1N1CCN(C(=O)NC(=N)N[C@H](C)c2cccc3ccccc23)CC1 [Example 83, N-{[4-(2-Methoxyphenyl)-1-piperazinyl]carbonyl}-N′-[(1R)-1-(1-naphthyl)ethyl]guanidine] |  | 750 nM | 
16 | COc1ccc(CNC(=N)NC(C)=O)c2ccccc12 [Example 88, N-Acetyl-N′-[(4-methoxy-1-naphthyl)methyl]guanidine] |  | 1230 nM | 
17 | O=C(Nc1nc2ccccc2[nH]1)Nc1cc(F)ccc1F [Example 89] |  | 2700 nM | 

Stronger by Ki [2], values ahead:

Row | Ki [1] | Ki [2] | Ki [3] | SMILES
18 | 460 nM | 11 nM | 1250 nM | N=C(NCc1cccc2ccccc12)NC(=O)NC1CCCCC1O (stereo not drawn) [Example 14, 1-({[({[(2-Hydroxycyclohexyl)amino]carbonyl}amino)(imino)methyl]amino}methyl)naphthalene]
19 | 500 nM | 21 nM | 480 nM | N=C(NCc1cccc2ccccc12)NC(=O)NCCCO [Example 16, 1-({[({[(3-Hydroxypropyl)amino}carbonyl}amino)(imino)methyl]amino}methyl)naphthalene]
20 | 480 nM | 11 nM | 680 nM | N=C(NCc1cccc2ccccc12)NC(=O)NCc1cccc(CN)c1 [Example 17, 1-({[[({[3-(Aminomethyl)benzyl]amino}carbonyl)amino](imino)methyl]amino}methyl)naphthalene]
21 | 540 nM | 16 nM | 1360 nM | N=C(NCc1cccc2ccccc12)NC(=O)NCc1cccs1 [Example 20, 2-({[({Imino[(1-naphthylmethyl)amino]methyl}amino)carbonyl]amino}methyl)thiophene]
22 | > 2500 nM | 10 nM | 1450 nM | CC(=O)NCCNC(=O)NC(=N)NCc1cccc2ccccc12 [Example 26, N-(2-{[({Imino[(1-naphthylmethyl)amino]methyl}amino)carbonyl]amino}ethyl)acetamide]
23 | > 2500 nM | 18 nM | 79 nM | N=C(NCc1cccc2ccccc12)NC(=O)Nc1cccc(C(N)=O)c1 [Example 27, 3-{[({Imino[(1-naphthylmethyl)amino]methyl}amino)carbonyl]amino}benzamide]
24 | 1580 nM | 13 nM | 1510 nM | CC(O)CNC(=O)NC(=N)NCc1cccc2ccccc12 (stereo not drawn) [Example 30, 1({[({[(2-Hydroxypropyl)amino]carbonyl}amino)(imino)methyl]amino}methyl) naphthalene]
25 |  | 19 nM |  | N=C(NCc1cccc2ccccc12)NC(=O)NCCc1ccc(O)cc1 [Example 31, 1-({[({[(4-Hydroxyphenethyl)amino]carbonyl}amino)(imino)methyl]amino}methyl) naphthalene]
26 | 780 nM | 24 nM | 1300 nM | N=C(NCc1cccc2ccccc12)NC(=O)NCc1ccc(F)cc1 [Example 32, 1-({[({[(4-Fluorobenzyl)amino]carbonyl}amino)(imino)methyl]amino}methyl)naphthalene]
27 | 1790 nM | 13 nM | 7750 nM | N=C(NCc1cccc2ccccc12)NC(=O)NC1CC1 [Example 34, 1-({[{[(Cyclopropylamino)carbonyl]amino}(imino)methyl]amino}methyl)naphthalene]
28 | > 2500 nM | 14 nM | 1180 nM | COCCCNC(=O)NC(=N)NCc1cccc2ccccc12 [Example 38, 1-(3-Imino-5-oxo-10-oxa-2,4,6-triazaundec-1-yl)naphthalene]
